# In patent publication US11352607B2, “Genomic engineering of pluripotent cells” (Fate Therapeutics, Inc., priority 2015, dated 2022):
# Columns and labels:
# [1] = test system: iCasp9-integrated iPSCs; test: AP1903-induced cell death of iCasp9-targeted hiPSCs (7AAD staining, flow cytometry); type: cell-based, human; settings: 24 hrs
# Method: The sorted GFP (neg), GFP (low) and GFP (hi) populations were expanded, and then were subjected to AP1903 treatment (10 nM or 100 nM), or DMSO as control, for 24 hrs. The treated cells were harvested and stained with 7AAD and analyzed by flow cytometry. The 7AAD negative cells (presumably live cells) percentage were plotted for each treatment.
# Expanded puro-resistant iPSCs were then subjected to AP1903 (or DMSO control) treatment for 24 hrs. The treated cells were harvested and stained with 7AAD and analyzed by flow cytometry. The 7AAD negative cells, i.e., live cells, percentage were plotted for each treatment.
# [2] = test system: 293T cells; test: AP1903-induced cell death of iCasp9-targeted 293T cells (7AAD); type: cell-based; settings: 10 nM or 120 nM, 24 hrs; 293T cells with CMV-driven iCasp9 at AAVS1
# Text: The chemical inducer of dimerization (CID; AP1903) was purchased from Medchemexpress (Monmouth Junction, N.J.). Twenty-four hours after CID exposure, the cells were harvested and stained with 7-amino actinomycin D (7-AAD) according to the manufacturer's instruction (BD Biosciences). The percentage of 7-AAD positive cells were quantified as dead cells by flow cytometry (Guava, EMD Millipore, Billerica, Mass.) and analyzed with flowjo software.
# A donor construct encompassing CMV-driven iCasp9 (AAVS1-G1.0) was designed to target the AAVS1 locus (FIG. 1A) and to integrate the Casp9 suicide gene to 293T cells. The donor construct also comprise GFP and puromycin genes, the expression of which are driven by AAVS1 endogenous promoter once the targeted insertion takes place (FIG. 1A). 293T cells were transfected with ZFNs specific to AAVS1 locus and the donor construct AAVS1-G1.0. Three days after transfection, the puromycin selection was started and continued for 12 days. The puro-selected population was analyzed by flow cytometry for GFP expression, and a range of GFP expression levels were observed. It was observed that about 82% of the puro-selected cell population expressed GFP (FIG. 1B). […] The treated cells were then harvested and stained with 7AAD, which selectively stains membrane-compromised dying cells, and analyzed by flow cytometry. […]
# [3] = test system: CAG-C38 iCasp9 iPSC clone with sr39TK at H11 locus; test: Dual suicide gene safe guard system: AP1903 and GCV treatment in vitro; type: cell-based, human; settings: 10 nM AP1903 two days; 25 μg/mL GCV nine days
# Text: In addition to CAG-iCasp9 integrated into AAVS1 locus, CAG-sr39TK was integrated into H11 safe harbor in CAG-C38 clonal iPSC using targeted insertion method described herein.
Compound,"cell death mediated by AP1903 ([1]; 10 nM or 100 nM, hiPSCs with CMV-driven iCasp9, GFP (neg), GFP (low), GFP (hi) populations)",cell death mediated by AP1903 ([1]; hiPSCs with iCasp9 under endogenous AAVS1 promoter),cell death post AP1903 treatment [2],inducible killing of CAG-C38 iCasp9 clone with sr39TK at H11 [3]
CC[C@H](C(=O)N1CCCC[C@H]1C(=O)O[C@H](CCc1ccc(OC)c(OC)c1)c1cccc(OCC(=O)NCCNC(=O)COc2cccc([C@@H](CCc3ccc(OC)c(OC)c3)OC(=O)[C@@H]3CCCCN3C(=O)[C@@H](CC)c3cc(OC)c(OC)c(OC)c3)c2)c1)c1cc(OC)c(OC)c(OC)c1 [AP1903],not detected,not detected,Significant cell death was detected,inducible killing of most cells but rare cells remained
"Nc1nc(O)c2ncn(COC(CO)CO)c2n1 [GCV, Ganciclovir]",–,–,–,expanded GCV-refractory cells
